In patent US9572820B2, “Methods of treating autophagy-associated disorders and related pharmaceutical compositions, diagnostics, screening techniques and kits” (priority 2011, dated 2017):

Legend:
caspase 1 p20 = test: Caspase-1 accumulation in BMM by Western blot; format: cell-based, murine; conditions: Atg5fl/fl LysM-Cre− BMM, EBSS
Protocol: (A) Confocal microcopy analysis of caspase-1 colocalization relative to LC3 in GFP-LC3 expressing BMM induced for autophagy by starvation (EBSS) in the presence of bafilomycin A1 for 90 minutes. Scale bar, 5 μM; Arrowheads and insets, LC3+ caspase-l+ positive profiles (colocalization). (B) Pearson's colocalization coefficient for caspase-1 vs. LC3 and IL-1α vs. LC3. (C) Caspase-1 accumulation in Atg5^fl/fl LysM-Cre− or Atg5^fl/fl LysM-Cre+ BMM induced for autophagy in EBSS with or without bafilomycin A1 (BafA1) and subjected to Western blot analysis. (D) IL-1α (culture supernatant ELISA) released from Atg5fl/fl LysM-Cre+ and Atg5fl/fl LysM-Cre− BMM incubated overnight with 100 ng/ml LPS and exposed for 1 h to inflammasome agonist silica (250 μg/ml) in EBSS. Data, means±SE, n≧3; **p<0.01 (t test).
Cells were washed with PBS and lysed with RIPA buffer containing protease inhibitor cocktail (Roche). Cells extracts were analyzed by standard immunoblotting techniques with antibodies to ASC (Enzo Life Science, AL177), procaspase-1 and active caspase-1 (P20) (Cell Signaling, 2225), GFP (Abeam), calpain I (Cell Signaling), p62 (Abeam) and actin (Sigma). Proteins were resolved on a 12% SDS-polyacrylamide gels and transferred to nitrocellulose membranes. The membrane was blocked for 1 h in 5% nonfat dried milk in PBS/Tween 20 (0.1%) and probed with primary antibody overnight at 4° C. […]

pro-IL-1β = test: Expression of pro-IL-1β in BMMs; format: cell-based, murine; conditions: cells treated with bafilomycin A1 or CA-074 Me
Protocol: To induce pro-IL-1β expression, cells were pretreated overnight with 100 ng/ml LPS (Sigma). Inflammasome was induced with […] nigericin (Sigma) for 1 h or with […] Alum (Thermoscientific) for 1 h or with […] silica crystals (MIN-U-SIL-15, US Silica) for 1 h or with […] Amyloid-b peptide (Ab; American Peptide Company) fibrils prepared as described (Moore et al, 2002). […] Starvation and other treatments (except for macrophage priming with LPS done in advance) were carried out concurrently (i.e., initiated at the same time).
For all conditions, cell-free supernatants were assayed by immunoblotting after TCA precipitation for mouse IL-1β p17 (R&D), caspase-1 p10 (Santa Cruz Biotechnology), HMGB1 (Abcam) and Cathepsin B (R&D) or by ELISA for mouse IL-1β (R&D), IL-18 (MBL), and HMGB1 (IBL). Immunofluorescence confocal microscopy was carried out using a Zeiss LSM 510 Meta microscope (laser wavelengths 488, 543, and 633 nm). Antibodies against endogenous proteins IL-1β (Abcam), Sec6 (Shu C Hsu, Rutgers University, NJ, USA), Cathepsin B (R&D), Rab8a (Abcam), GORASP1 (Novus), GORASP2 (ProteinTech Group), GM130 (BD), LC3 (MBL) and GFP (Abcam; for BMMs from GFP-LC3 knock-in transgenic mice) were used for indirect immunofluorescence analysis. […]

Structure (SMILES): CO/C1=C\C(C)=C\[C@@H](C)[C@@H](O)[C@@H](C)C/C(C)=C/C=C/[C@H](OC)[C@@H]([C@@H](C)[C@@H](O)[C@H](C)[C@@]2(O)C[C@@H](O)[C@H](C)[C@@H](C(C)C)O2)OC1=O [bafilomycin A1]
- levels of caspase 1 p20 (caspase 1 p20): abnormally higher levels
- expression of pro-IL-1β (pro-IL-1β): No differences
